Test results as given in patent US7781407B2, “Calcium gluconolactate compositions and methods of making same” (priority 2002, dated 2010).

Test: Apparent and compacted bulk density (mass/volume, meshes 30, 80, 100)
Format: physicochemical
From the text: 2.—Apparent and compacted bulk density; for the test calcium gluconolactonate, from formula III, was classified in 3 different types of mesh 30, 80, and 100 to determine its apparent density. The same procedure was used to determine compacted bulk density. The compound was classified in the same 30, 80, and 100 meshes, determining its density, in both cases, in grams per milliliter, as shown in table II below:
The average density corresponds to a 30 mesh, for the most common form of the product. A table is attached with different tests performed to determine the average apparent and compacted bulk density, resulting, in the first case, in a[n apparent] density of 0.690 and a compacted bulk density of 0.883, as shown in table III below: […]

[1] = 30 mesh, average of tests 1 to 31

CC(O)C(=O)[O-].O=C([O-])[C@H](O)[C@@H](O)[C@H](O)[C@H](O)CO.[Ca+2] [calcium gluconolactate]
Apparent Density (30 mesh) (30 mesh, Mass/Volume): 0.690 g/mL
Compacted Bulk Density (30 mesh) (30 mesh, Mass/Volume): 0.883 g/mL
Apparent density, average [1]: 0.690
Compacted Bulk density, average [1]: 0.883
Apparent Density (80 mesh) (80 mesh, Mass/Volume): 0.655 g/mL
Compacted Bulk Density (80 mesh) (80 mesh, Mass/Volume): 0.904 g/mL
Apparent Density (100 mesh) (100 mesh, Mass/Volume): 0.609 g/mL
Compacted Bulk Density (100 mesh) (100 mesh, Mass/Volume): 0.874 g/mL
